# Assay results published in PubChem BioAssay AID1996.
# Conditions: buffer; pH 7.4; 200.0 µM
row,Compound,solubility kinetic [µg/mL]
1,O=C(CCS(=O)(=O)c1ccccc1)NC1CCCCC1,> 44.3
2,Cc1ncc([N+](=O)[O-])n1Cc1ccc(Cl)cc1,34.7
3,COc1ccc(CNC(=S)Nc2ccc(F)c(Cl)c2)cc1OC,3.2
4,Cc1ccc(S(=O)(=O)N2CCCCC2C(=O)Nc2ccc(N(C)C)cc2)cc1 (stereo unspecified),5.7
5,CC(=O)Nc1ccc(NC(=O)c2ccc(COc3ccccc3)cc2)cc1,0.6
6,CCOc1ccc(NC(=O)c2ccccc2NC(=O)CNC2CCCC(C)C2C)cc1 (stereo unspecified),2.2
7,Cc1ccc(S(=O)(=O)N(C)CC(=O)N2CC(C)OC(C)C2)cc1 (stereo unspecified),> 51.1
8,O=C(O)CNC(=S)NCc1ccccc1,> 33.6
9,O=C(Nc1cccnc1)c1cc(Cl)ccc1Cl,> 40.1
10,Cc1ccc(SCC(=O)NCCCc2ccccc2)cc1,5.7
11,O=C(Cc1ccccc1[N+](=O)[O-])Nc1nccs1,7.3
12,NS(=O)(=O)c1cccc(NC(=O)CCC(=O)c2cccs2)c1,> 50.8
13,CCc1ccc(C(C)NC(=O)C2CCCO2)cc1 (stereo unspecified),34.9
14,O=C(COC(=O)/C=C/c1cccc(Cl)c1)NC1CC1,4.8
15,O=C(N/N=C/c1ccncc1)NC1CCCCC1,> 36.9
16,COC(=O)c1c(C)oc(C)c1S(=O)(=O)N(C)C1CCCCC1,38.9
17,CN(C(=O)c1ccccc1)C1c2c(ccc3ccccc23)OCC1CO (stereo unspecified),< 0.7
18,OCC1OC(n2cnc3c(NC4CCCC4)ncnc32)C(O)C1O (stereo unspecified),> 50.3
19,CC(=O)N1c2ccccc2-c2nc3ccccc3n2C1C (stereo unspecified),> 41.6
20,Cc1ccc(C)c(NC(=O)CN(C)C(=O)c2ccncc2)c1,39.1
21,Cc1nc(-c2ccccc2)nc2sc(C(=O)c3ccc(F)cc3)c(N)c12,1.5
22,CCCc1cc(=O)[nH]c(SCC(=O)N2c3ccccc3CC2C)n1 (stereo unspecified),> 51.5
23,COC(=O)c1ccccc1NC(=O)NCCc1ccccc1OC.Cl,6.3
24,O=C1CSC(c2ccccc2)N1Cc1ccccc1 (stereo unspecified),31.3
25,Cc1noc(C)c1CC(=O)Nc1ccc2c(c1)OCO2,> 41.1

row,Compound,solubility kinetic [µg/mL]
1,CC1(c2ccc([N+](=O)[O-])cc2)NC(=O)NC1=O (stereo unspecified),> 35.3
2,O=C(NCCN1CCOCC1)C(Sc1ccccc1)c1ccccc1 (stereo unspecified),> 53.5
3,CCC(=O)Nc1ccc(NC(=O)c2cccc3ccccc23)cc1,< 0.3
4,Cc1ccccc1CNC(=O)C(=O)Nc1nccs1,1.2
5,CCOc1ccc(Cc2noc3c2C(=O)CC(C)(C)C3)cc1OCC,46.4
6,COc1ccc(-c2noc(CCC(=O)NCc3ccco3)n2)cc1,39.7
7,Cl.O=C(CN1CCCC1)Nc1ccc2c(c1)CCC2,41.3
8,O=C(Nc1cccc2cccnc12)c1ccccc1Br,0.4
9,Cc1ccc(-n2c(C)c(C)c3c(NCCO)ncnc32)cc1,> 44.5
10,COc1ccc(Nc2nccc(-c3cccc(N)c3)n2)cc1,22.5
11,CN1CCN(c2ccccc2NC(=O)c2cccc([N+](=O)[O-])c2)CC1,> 51.1
12,O=S(=O)(NC1CC2CCC1C2)c1ccc(Br)cc1 (stereo unspecified),13.9
13,Cc1cccc(NC(=O)CN2C(=O)C(C)Oc3ccccc32)n1 (stereo unspecified),> 46.7
14,Cc1ccc(OCCSc2nc3ccccc3n2CC(=O)O)cc1,> 51.4
15,CCC(C)NC(=O)Cn1c(=O)sc2ccccc21 (stereo unspecified),33.6
16,CCOc1ccc(N(CC(=O)N2CCCCCC2)S(C)(=O)=O)cc1,31
17,CCOC(=O)C1CCN(Cc2ccc(O)c3ncccc23)CC1,1.6
18,COC(=O)C1=C(C(=O)OC)SC(=C2C(=S)C(C)(C)N(C(=O)C(C)C)c3ccccc32)S1,< 1
19,COc1cc(C)c(C)cc1S(=O)(=O)N1CCCc2ccccc21,4.9
20,N=c1c2ccccc2nc2n1CCCCCCCCCCC2,34.6
21,CC(=O)c1c(C)[nH]c(C(=O)OCc2csc(CC(=O)Nc3ccccc3C)n2)c1C,4.2
22,COc1ccc(COc2cccc3ccc(C)nc23)cc1F,5.2
23,CCc1ccc(NCc2ccc(OC)c(Cn3ccnc3)c2)cc1,40.2
24,COc1ccc2ccccc2c1CN(C)Cc1ccccc1.O=C(O)C(=O)O,53.1
25,Cc1cc(C)cc(NC(=O)NCc2ccccn2)c1,> 38.3

row,Compound,solubility kinetic [µg/mL]
1,Nc1c(Cl)cc(Cl)cc1C(=O)OCC(=O)N1CCOCC1,> 50
2,Cc1ccc(C(CNC(=O)c2ccco2)N2CCN(C)CC2)cc1 (stereo unspecified),> 49.1
3,CCOc1ccc(N2CC(C(=O)N3CCCc4ccccc43)CC2=O)cc1 (stereo unspecified),47.2
4,CN(Cc1ccc(F)cc1)C(=O)c1ccc2c(c1)NC(=O)CS2,> 49.6
5,Cc1cc(=S)nc(-c2ccccn2)[nH]1,28.6
6,COc1ccc(CCNC(=O)c2ccc3ccccc3n2)cc1,22.2
7,O=C(NCCCN1CCOCC1)c1ccc(Cl)cc1Cl,> 47.6
8,CCOc1cccc(N2C(=O)/C(=C/c3ccco3)C(=O)NC2=S)c1,12.3
9,O=C(NCc1ccc(Cl)cc1)c1ccc(N2CCCC2=O)cc1,5.3
10,CN(CC(=O)Nc1cccc(F)c1)CC(=O)Nc1ccccc1-c1ccccc1,17.3
11,Cc1ccc(S(=O)(=O)N2CCc3ccccc3C2CC(=O)O)cc1 (stereo unspecified),> 51.8
12,CN(C)CCCN1c2ccccc2Sc2ccccc21.Cl,> 48.1
13,Cc1cc(C)cc(OCC(=O)Nc2ccc3c(c2)OCCO3)c1,2
14,CCn1c(=O)c([N+](=O)[O-])c(Cl)c2ccccc21,3.3
15,CCCN(C(=O)Cc1coc2cc(OC)ccc12)C1CCS(=O)(=O)C1 (stereo unspecified),> 54.8
16,Cn1c(=O)c([N+](=O)[O-])c(NCc2ccc3c(c2)OCO3)c2ccccc21,0.9
17,CN(C)C(CNC(=O)c1ccc(C(F)(F)F)cc1)c1ccco1 (stereo unspecified),> 48.9
18,COC(=O)c1ccc(C)c(NC(=O)CCCN2C(=O)CN(C)C2=O)c1,> 52.1
19,CN(C)/C=N/c1nccc(-c2cccs2)n1,> 34.8
20,O=C(NCCc1ccc(Cl)cc1)c1ccc2nccnc2c1,4.8
21,CN(CC(=O)Nc1ccccc1Cl)C(=O)c1ccc(Cl)c(S(=O)(=O)N2CCCCCC2)c1,21.6
22,Cc1ccc(NC(=O)C2CC2c2ccccc2)cc1 (stereo unspecified),2.4
23,O=C(NC1CC1)c1cc2ccccc2o1,> 30.2
24,COC1CCCCC1NCCc1ccccc1.O=C(O)C(=O)O (stereo unspecified),> 48.5
25,O=C(CCc1ccc(S(=O)(=O)N2CCOCC2)cc1)Nc1ccc(F)cc1[N+](=O)[O-],14

row,Compound,solubility kinetic [µg/mL]
1,COc1ccc(N2C(=O)C(F)(F)C2c2cccc(F)c2)cc1 (stereo unspecified),< 0.7
2,O=C1Nc2ccccc2Nc2ccccc21,20.9
3,Clc1cc(NC2CCCCC2)ncn1,> 31.8
4,Cc1cc(C(=O)Nc2ccncc2)ccc1[N+](=O)[O-],18.4
5,CC1COC(Cn2c3ccccc3c3ccccc32)O1 (stereo unspecified),12.1
6,Cc1csc(NC(=O)c2ccc(OCC3CCCO3)cc2)n1 (stereo unspecified),21
7,O=C(COC(=O)c1cccc(F)c1)NC(=O)NCc1ccccc1,2.4
8,CC(C)c1ccccc1NC(=S)NC(=O)C1CCCCC1,0.9
9,CCN(C(=O)C12CC3CC(CC(C3)C1)C2)C1CCS(=O)(=O)C1 (stereo unspecified),> 48.8
10,O=C(OC1CCOC1=O)c1cc(Cl)ccc1[N+](=O)[O-] (stereo unspecified),42.1
11,O=C(Nc1ccc(CN2CCOCC2)cc1)c1cc(Br)ccc1Cl,57
12,COc1cscc1C(N)=O,19.4
13,O=C(Nc1ccc(F)cc1)c1ccc2[nH]c(=O)c(=O)[nH]c2c1,> 44.9
14,C=CCN(C(=O)CN1CCCCC1)c1nc(-c2ccccc2)cs1,2.4
15,Cc1cccc(OCc2nc(-c3ccc(Br)o3)no2)c1,1
16,O=C1CC(NC2CCN(C(=O)c3cccc(F)c3)CC2)C(=O)N1 (stereo unspecified),> 47.9
17,CC1=NCCN1CCNC(=O)Nc1ccc(C(C)(C)C)cc1,> 45.4
18,Cc1cc(C=C2C(=O)N(C)C(=S)N(C)C2=O)c(C)n1-c1cccnc1,13.9
19,Cc1ccc(N2C(=O)CSC2=S)cc1C,< 0.5
20,CC(OC(=O)c1ccc(Cl)nc1)C(=O)NC1CCCC1 (stereo unspecified),24.7
21,CCOC(=O)c1ccc(N2C(=O)Cc3ccccc3C2=O)cc1,> 46.4
22,CC(C)(C)c1nc(N)nc(=O)[nH]1,23.9
23,Cc1ccc(CNC(=O)CCNC(=O)c2ccc([N+](=O)[O-])cc2)cc1,41.2
24,CC(=O)OC(C(=O)Nc1nccs1)c1ccccc1 (stereo unspecified),> 41.4
25,Cc1cccc(S(=O)(=O)Nc2cc(Cl)ccc2N2CCOCC2)c1,3.6

row,Compound,solubility kinetic [µg/mL]
1,COc1cc(OC)c(NC(=O)Cc2cccs2)cc1Cl,32.1
2,Cc1ccc(SCC(=O)NC2CC2)cc1,> 33.2
3,Cc1nc2c(C)cccn2c(=O)c1NC(=O)c1ccco1,> 42.5
4,Cc1cnc(=O)[nH]c1SCc1cccc([N+](=O)[O-])c1,5.6
5,CC(C)n1c(NCc2ccccc2O)nc2ccccc21,15.8
6,O=C(NC1CCCCC1)C(=S)N1CCOCC1,> 38.5
7,CN(C)S(=O)(=O)c1cccc(C(=O)OCC(=O)N2CCCC2=O)c1,> 53.2
8,Cc1cc(C)c(OCCn2ccnc2)c(C)c1,31.5
9,O=C(N1CCCC1)C12CC3CC(CC(Cl)(C3)C1)C2,37.9
10,CCCCc1nc(Cl)c(C#N)c2c1CCC2,3.4
11,Cc1cccc(C)c1NC(=O)COC(=O)C1C2CC3OC(=O)C1C3C2 (stereo unspecified),> 51.5
12,CCNC(=O)COC(=O)c1cccc(Br)c1,40.8
13,Cc1cc(C)cc(NC(=S)NC2CC3CCCC(C2)N3C2CC2)c1 (stereo unspecified),> 51.5
14,CN1C(C(=O)c2ccccc2)=C(N)c2ccccc2S1(=O)=O,40.9
15,CCOc1cccc(C(=O)Nc2ccncc2)c1,> 36.3
16,CCNc1oc(/C=C/c2ccc(OCC)cc2)nc1C#N,1.7
17,O=C(/C=C/c1ccc([N+](=O)[O-])cc1)OCC(=O)N1CCOCC1,10.1
18,O=C(Nc1cccnc1N1CCOCC1)c1cccs1,> 43.4
19,C=CCn1c(O)c(C(C)=NCCCN(C)C)c(=O)[nH]c1=O,> 44.2
20,O=C(O)CCSc1nc2ccccc2n1Cc1ccccc1,43.7
21,NC(=O)COC(=O)c1c2c(nc3ccccc13)CCCCC2,> 44.8
